Tests used:
[1] = Stability of S-303 after reconstitution, HPLC percent total peak area; type: physicochemical
Source text: Increasing the throughput of RBC processing over the current process may benefit from the preparation of multi-use “bulk” containers of S-303 and GSH stock solutions for transfer (e.g., sequential transfer) into multiple processing sets to treat multiple RBC units. However, the instability of S-303 after reconstitution in the current INTERCEPT Blood System technology would generally not be suitable for such a multi-dose container approach. Toward an objective of multi-dose “bulk” dosing, which would require much longer hold times post-reconstitution, studies were performed to evaluate the stability of S-303 under different conditions, such as when reconstituted at higher concentrations. As control, S-303 was reconstituted at a concentration of 6.1 mM. Additional study arms reconstituted S-303 at 9.4 mM, 14.4 mM and 28.8 mM (Table 10). S-303 levels were measured over 120 min after reconstitution by standard HPLC and calculated as total peak area (e.g., area under the peak, area under the curve) to determine percent stability (percent total area).
Subsequent studies were performed in a similar manner as the above to further evaluate S-303 stability at higher concentrations than tested initially, including reconstitution at 40 mM, 50 mM and 75 mM concentrations.

[2] = tested on: RBCs; test: Hemolysis after addition to RBCs of S-303/GSH reconstituted in WFI or saline; type: cell-based
Method: A study was performed to evaluate water (WFI, water for injection) as an alternative to saline for reconstitution of S-303 and/or GSH, for potential advantages such as manufacturing, cost of goods and/or regulatory requirements. Initially, the combinations of S-303 and GSH both reconstituted in WFI, or alternatively GSH reconstituted in WFI and S-303 reconstituted in saline were compared to the standard method of reconstituting both GSH and S-303 in saline. Following addition to RBCs, the level of hemolysis was evaluated due to water potentially being a hypotonic environment for the RBC.
Based on the extended stability data above for reconstituting S-303 at higher concentrations, an opportunity is provided for using bulk S-303 containers and a dosing device as described above for reconstituting S-303 at higher concentrations followed by a dilution step with diluent as part of the transfer of S-303 to the RBC in the mixing container. With such a dilution step, water may be substituted as an alternative to saline in the reconstitution step for the bulk S-303, followed by dilution in saline prior to each transfer step into individual RBC processing sets. To evaluate the feasibility of water reconstitution followed by saline dilution, an additional study was performed. […]

[3] = Stability of S-303 after reconstitution, HPLC percent total peak area; type: physicochemical; remark: listed apart in the source

SMILES: O=C(CCNc1c2ccccc2nc2ccccc12)OCCN(CCCl)CCCl [S-303, β-alanine, N-(acridin-9-yl), 2-[bis(2-chloroethyl)amino]ethyl ester]
- stability, glass vials vs hemocompatible blood bags of different sheeting materials ([1]; 75 mM): no differences in stability observed
- Mean % stability ([1]; reconstituted at 6.1 mM (control), 1 min): 98%
- Mean % stability ([1]; reconstituted at 6.1 mM (control), 10 min): 97%
- Mean % stability ([1]; reconstituted at 6.1 mM (control), 20 min): 95%
- Mean % stability ([1]; reconstituted at 6.1 mM (control), 30 min): 94%
- Mean % stability ([1]; reconstituted at 6.1 mM (control), 45 min): 92%
- Mean % stability ([1]; reconstituted at 6.1 mM (control), 60 min): 90%
- Mean % stability ([1]; reconstituted at 6.1 mM (control), 90 min): 87%
- Mean % stability ([1]; reconstituted at 6.1 mM (control), 120 min): 85%
- Mean % stability ([1]; reconstituted at 9.4 mM, 1 min): 98%
- Mean % stability ([1]; reconstituted at 9.4 mM, 10 min): 97%
- Mean % stability ([1]; reconstituted at 9.4 mM, 20 min): 96%
- Mean % stability ([1]; reconstituted at 9.4 mM, 30 min): 95%
- Mean % stability ([1]; reconstituted at 9.4 mM, 45 min): 93%
- Mean % stability ([1]; reconstituted at 9.4 mM, 60 min): 92%
- Mean % stability ([1]; reconstituted at 9.4 mM, 90 min): 90%
- Mean % stability ([1]; reconstituted at 9.4 mM, 120 min): 87%
- Mean % stability ([1]; reconstituted at 14.4 mM, 1 min): 99%
- Mean % stability ([1]; reconstituted at 14.4 mM, 10 min): 97%
- Mean % stability ([1]; reconstituted at 14.4 mM, 20 min): 96%
- Mean % stability ([1]; reconstituted at 14.4 mM, 30 min): 96%
- Mean % stability ([1]; reconstituted at 14.4 mM, 45 min): 95%
- Mean % stability ([1]; reconstituted at 14.4 mM, 60 min): 94%
- Mean % stability ([1]; reconstituted at 14.4 mM, 90 min): 92%
- Mean % stability ([1]; reconstituted at 14.4 mM, 120 min): 90%
- Mean % stability ([1]; reconstituted at 28.8 mM, 1 min): 99%
- Mean % stability ([1]; reconstituted at 28.8 mM, 10 min): 98%
- Mean % stability ([1]; reconstituted at 28.8 mM, 20 min): 97%
- Mean % stability ([1]; reconstituted at 28.8 mM, 30 min): 97%
- Mean % stability ([1]; reconstituted at 28.8 mM, 45 min): 96%
- Mean % stability ([1]; reconstituted at 28.8 mM, 60 min): 95%
- Mean % stability ([1]; reconstituted at 28.8 mM, 90 min): 94%
- Mean % stability ([1]; reconstituted at 28.8 mM, 120 min): 92%
- percent stable ([1]; reconstituted at 28.8 mM, up to 60 minutes): > 95%
- stability ([1]; reconstituted at 75 mM, through 150 min): at least 95%
- hemolysis ([2]; S-303 reconstituted at 28.8 mM or 50 mM in WFI, diluted to 6 mM in saline prior to addition to RBCs, GSH in WFI (FIG. 7)): eliminated the issue of hydrolysis previously observed
- level of hemolysis ([2]; S-303 reconstituted in WFI, after addition to RBCs, compared with saline reconstitution (FIG. 6)): notable levels of hemolysis
- stability time, extrapolation of the data in a best fit curve ([3]; 100 mM concentration): approximately 170 min
- stability time, extrapolation of the data in a best fit curve ([3]; 150 mM concentration): ~240 min

Reference: patent US20260034277A1, “SYSTEMS AND METHODS FOR PATHOGEN INACTIVATION OF BLOOD PRODUCTS” (Cerus Corporation, priority 2024, published 2026)
